{
  "source": "patent US5434136A",
  "about": "“Treatment of motility disorders with a GNRH analog” (priority 1992, dated 1995)",
  "key": {"[1]": {"tested_on": "functional bowel disorders", "format": "in vivo, human", "text": "The symptoms of the two patients with GMD were abdominal pain located in the right upper quadrant and epigastrium, daily nausea, and intermittent vomiting exacerbated by eating and by the luteal phase of the menstrual cycle. The two patients with IIHVN had abdominal pain, nausea, and intermittent vomiting, and also had urinary tract involvement consisting of pain and a decrease in urination. The fifth patient had Roux-en-Y syndrome (defined as epigastric-to-right-upper-quadrant pain, nausea, and vomiting increased by eating) after surgical construction of a gastro-jejunal Roux-en-Y anastomosis. The mean duration of these symptoms was eight years (Table 1). All subjects had undergone extensive blood testing, several upper gastrointestinal x-ray series, barium enemas, esophagogastroduodenoscopy, endoscopic retrograde cholangiopancreatography, gastric emptying tests with radiolabeled meal, ultrasound of the abdomen, computerized axial tomography of the abdomen, and many other tests. The results of all tests were normal, except for prolonged gastric emptying in the patient with the Roux-en-Y Syndrome. Because of their intractable clinical problem, these patients were included in the test protocol with leuprolide acetate. Protocol: The symptoms of each patient were first assessed, and their tests evaluated. Each patient kept a daily symptom diary. Leuprolide acetate was obtained by prescription as Lupron (TAP pharmaceuticals, Abbott Labs, North Chicago, Ill.). One multi-use vial of Lupron comprised of […] Leuprolide Acetate. A daily dose of 0.5 mg ([…]) was self-administered by subcutaneous injection, for a period of three months. Each patient was examined at 0, 1 and 3 months of treatment. After the third month, leuprolide was continued as previously, and estrogen (0.625 mg orally) and calcium (1000 mg orally) were also administered. At the end of the sixth month, a two week withdrawal period from leuprolide acetate ensued. During this period a 10 mg oral dose of progesterone was given to pre-menopausal patients, to assess recurrence of symptoms and to induce menses. Post-menopausal women were not treated with progesterone during the two week withdrawal period. This procedure was then continued for an additional six months, with drug withdrawal and progesterone given every three months to induce a menstrual cycle. Serum estradiol, progesterone, FSH, and LH were quantitated by radioimmunoassay prior to the initiation of leuprolide treatment, and at three months post treatment initiation. The procedure of example 1 was followed with additional patients. […] One patient listed as a failure elected to withdraw from the program after four weeks of treatment. One patient after recovering from the symptoms of their autonomic neuropathy expired from a massive myocardial infarction (Responded--expired). These patients were treated with Leuprolide acetate following the protocol established in Example 1."}, "[2]": {"tested_on": "migrating motor complexes, jejunum", "assay": "Leuprolide acetate in ovariectomized female rats: migrating motor complexes", "format": "in vivo, ovariectomized female Wistar rats", "conditions": "for Migrating Motor Complexes, L-Fasted / Migrating Motor Complexes, L-Fed: ovariectomized", "method": "Eleven female Wistar rats weighing between 175 and 250 g were each implanted with four bipolar Ag/AgCL electrodes (the preparation of which is described in: Mathias, Am. J. Physiology, 249:[…]-[…], 1981). The electrodes were sewn 5 cm from the Ligament of Trietz and 5 cm apart, onto the jejunal serosa. The number of migrating myoelectric complexes was recorded using a R-612 Dynograph (Sensor-Medics, Anaheim, Calif.). Rats were fasted for 36 hours prior to recording and feeding (no food, liberal water), and were housed in special cages to remove feces. After 36 hours of fasting, Migrating Motor Complexes (MMC) were recorded at a sensitivity of 0.2 mV/cm, 2.5 mm/sec paper speed, and a Time Constant of 1 for a duration of 2 to 4 hours. Immediately following the fasted recording session, the rats were fed 2 biscuits of Purina rat chow with simultaneous recording during feeding and continued for 4 hours. Female Wistar rats were ovariectomized and permitted to recover ten days. Bipolar Ag/AgCl electrodes were then implanted as described for example 4. Control MMC readings in the fasted and fed states were recorded prior to treatment with leuprolide acetate (Controls) as described in Example 4. Treatment with leuprolide acetate followed using doses in the range of 2 to 250 μg/100 g body weight. Fasted and fed recordings were obtained as described for Example 4."}, "irritable bowel syndrome": {"tested_on": "irritable bowel syndrome", "conditions": "patient", "method": "The patient, a patient suffering from irritable bowel syndrome presented symptoms of nausea, vomiting, abdominal pain, and altered bowel habits. This patient was treated with lupron, 2.0 mg/day by subcutaneous injection, for a period of six months. […] Nafarelin is a GnRH analog available from SYNTEX, which differs from the natural GnRH peptide in a D-Nal (2)^6 substitution. […] Nafarelin therapy was discontinued, and treatment with Danazol, a 17-ethyltestosterone derivative known to antagonize GnRH receptors at the level of the pituitary, was begun, at 200 mg four times daily, P.O., for a period of three months."}},
  "note": "Where two headings read alike, the source gives them in different places.",
  "data": [
    {"molecule": "CCNC(=O)[C@@H]1CCCN1C(=O)[C@H](CCCNC(=N)N)NC(=O)[C@H](CC(C)C)NC(=O)[C@@H](CC(C)C)NC(=O)[C@H](Cc1ccc(O)cc1)NC(=O)[C@H](CO)NC(=O)[C@H](Cc1c[nH]c2ccccc12)NC(=O)[C@H](Cc1c[nH]cn1)NC(=O)[C@@H]1CCC(=O)N1", "note": "[Leuprolide acetate, leuprolide acetate]", "values": [
      {"measurement": "Duration of therapy until symptom free", "setting": "[1]; Patient 7", "result": "≤ 8", "unit": "weeks"},
      {"measurement": "Response", "setting": "[1]; Patient 7, Pelvic Floor Dysfunction", "result": "symptom free"},
      {"measurement": "Response", "setting": "[1]; Patient 7, Pelvic Floor Dysfunction, listed as leuprolide", "result": "Responded"},
      {"measurement": "Response", "setting": "[1]; Patient 8, Chronic Intestinal Pseudo Obstruction, listed as leuprolide", "result": "Responded"},
      {"measurement": "Response", "setting": "[1]; Patient 8, Chronic Intestinal Pseudo Obstruction, listed as leuprolide acetate", "result": "does not chronically experience severe symptoms"},
      {"measurement": "Hospital admissions since therapy was begun", "setting": "[1]; Patient 8, before: at least one week per month in hospital", "result": "no hospital admissions"},
      {"measurement": "Response", "setting": "[1]; Patient 9, Roux-en-Y-Syndrome", "result": "Responded"},
      {"measurement": "Response", "setting": "[1]; Patient 10, Roux-en-Y-Syndrome, withdrew", "result": "Failure"},
      {"measurement": "Response", "setting": "[1]; Patient 11, Chronic Intestinal Pseudo Obstruction, side effects", "result": "Failure"},
      {"measurement": "Response", "setting": "[1]; Patient 12, Roux-en-Y-Syndrome, expired", "result": "Failure"},
      {"measurement": "Need for parental alimentation for weight control", "setting": "[1]; Patient 13", "result": "no longer requires parental alimentation"},
      {"measurement": "Urination", "setting": "[1]; Patient 13", "result": "improved"},
      {"measurement": "Response", "setting": "[1]; Patient 13, Idiopathic Intestinal Hollow Visceral Myopathy/Neuropathy, protocol of example 1", "result": "improved dramatically"},
      {"measurement": "Response", "setting": "[1]; Patient 13, Idiopathic Intestinal Hollow Visceral Myopathy/Neuropathy, protocol of example 1, listed as leuprolide", "result": "Responded"},
      {"measurement": "Response", "setting": "[1]; Patient 14, Pelvic Floor Dysfunction", "result": "Failure"},
      {"measurement": "Need for parental supplementation", "setting": "[1]; Patient 15", "result": "requires no parental supplementation"},
      {"measurement": "Response", "setting": "[1]; Patient 15, Chronic Intestinal Pseudo Obstruction", "result": "steadily improved"},
      {"measurement": "Response", "setting": "[1]; Patient 15, Chronic Intestinal Pseudo Obstruction, listed as leuprolide", "result": "Responded"},
      {"measurement": "Response", "setting": "[1]; Patient 16, Roux-en-Y-Syndrome", "result": "relieved"},
      {"measurement": "Response", "setting": "[1]; Patient 16, Roux-en-Y-Syndrome, listed as leuprolide", "result": "Responded"},
      {"measurement": "Body weight maintained under therapy", "setting": "[1]; Patient 16, weight before 96 pounds", "result": "115-118 pounds"},
      {"measurement": "Theophylline requirement for lung disease", "setting": "[1]; Patient 17", "result": "smaller dose of Theophylline is now required"},
      {"measurement": "Response", "setting": "[1]; Patient 17, Gastrointestinal Motor Dysfunction, protocol of example 1", "result": "abated"},
      {"measurement": "Response", "setting": "[1]; Patient 17, Gastrointestinal Motor Dysfunction, protocol of example 1, listed as leuprolide", "result": "Responded"},
      {"measurement": "Pulmonary function tests", "setting": "[1]; Patient 17, chronic obstructive lung disease", "result": "dramatic improvement"},
      {"measurement": "Response", "setting": "[1]; Patient 18, Idiopathic Intestinal Hollow Visceral Myopathy/Neuropathy, protocol of example 1", "result": "all of their symptoms have improved except for their obstipation"},
      {"measurement": "Response", "setting": "[1]; Patient 18, Idiopathic Intestinal Hollow Visceral Myopathy/Neuropathy, protocol of example 1, listed as leuprolide", "result": "Responded"},
      {"measurement": "Duration of therapy after which all symptoms had disappeared", "setting": "[1]; Patient 19", "result": 6, "unit": "weeks"},
      {"measurement": "Response", "setting": "[1]; Patient 19, Gastrointestinal Motor Dysfunction, protocol of example 1, listed as leuprolide", "result": "Responded"},
      {"measurement": "Course after the drug was discontinued", "setting": "[1]; Patient 19, discontinued after six months of treatment", "result": "no recurrent disease"},
      {"measurement": "Response", "setting": "[1]; Patient 20, Gastrointestinal Motor Dysfunction, protocol of example 1", "result": "symptom-free"},
      {"measurement": "Response", "setting": "[1]; Patient 20, Gastrointestinal Motor Dysfunction, protocol of example 1, listed as leuprolide", "result": "Responded"},
      {"measurement": "Response", "setting": "[1]; Patient 21, Gastrointestinal Motor Dysfunction", "result": "Responded"},
      {"measurement": "Swallowing and eating", "setting": "[1]; Patient 22", "result": "now able to swallow and eat"},
      {"measurement": "Response", "setting": "[1]; Patient 22, Gastrointestinal Motor Dysfunction, response seen after three weeks of therapy", "result": "dramatic response"},
      {"measurement": "Response", "setting": "[1]; Patient 22, Gastrointestinal Motor Dysfunction, response seen after three weeks of therapy, listed as leuprolide", "result": "Responded"},
      {"measurement": "Need of opiates for pain", "setting": "[1]; Patient 23", "result": "did not require opiates for pain"},
      {"measurement": "Response", "setting": "[1]; Patient 23, Roux-en-Y-Syndrome", "result": "Responded"},
      {"measurement": "Response", "setting": "[1]; Patient 23, Roux-en-Y-Syndrome, listed as Lupron", "result": "symptom free"},
      {"measurement": "Side effects leading to withdrawal from treatment", "setting": "[1]; human, in vivo", "result": "bone pain"},
      {"measurement": "Number of patients who failed to respond", "setting": "[1]; of the twenty-six treated to date", "result": "Four"},
      {"measurement": "Response of the majority of patients", "setting": "[1]; twenty-six patients treated to date", "result": "full recovery"},
      {"measurement": "Dose required to overcome the reduction of MMC/hour in fed rats", "setting": "[2]; ovariectomized female rats", "result": 100, "unit": "ug/100 g body weight"},
      {"measurement": "Migrating Motor Complexes, L-Fasted", "setting": "[2]; 2 μg/100 g body weight, control 3.86 + 0.14, mean + SEM", "result": "4.40 + 0.16 MMC/hour"},
      {"measurement": "Migrating Motor Complexes, L-Fed", "setting": "[2]; 2 μg/100 g body weight, control 0", "result": 0, "unit": "MMC/hour"},
      {"measurement": "Migrating Motor Complexes, L-Fasted", "setting": "[2]; 20 μg/100 g body weight, control 5.17 + 0.31, mean + SEM", "result": "5.40 + 0.15 MMC/hour"},
      {"measurement": "Migrating Motor Complexes, L-Fed", "setting": "[2]; 20 μg/100 g body weight, control 0", "result": 0, "unit": "MMC/hour"},
      {"measurement": "Migrating Motor Complexes, L-Fasted", "setting": "[2]; 40 μg/100 g body weight, control 4.50 + 0.22, mean + SEM", "result": "5.23 + 0.41 MMC/hour"},
      {"measurement": "Migrating Motor Complexes, L-Fed", "setting": "[2]; 40 μg/100 g body weight, control 0.88 + 0.58", "result": 0, "unit": "MMC/hour"},
      {"measurement": "Migrating Motor Complexes, L-Fasted", "setting": "[2]; 100 μg/100 g body weight, control 4.00 + 0.17, mean + SEM", "result": "5.00 + 0.41 MMC/hour"},
      {"measurement": "Migrating Motor Complexes, L-Fed", "setting": "[2]; 100 μg/100 g body weight, control 0, mean + SEM", "result": "4.50 + 0.34 MMC/hour"},
      {"measurement": "Migrating Motor Complexes, L-Fasted", "setting": "[2]; 250 μg/100 g body weight, control 4.50 + 0.22, mean + SEM", "result": "4.50 + 0.29 MMC/hour"},
      {"measurement": "Migrating Motor Complexes, L-Fed", "setting": "[2]; 250 μg/100 g body weight, control 0.88 + 0.58, mean + SEM", "result": "5.00 + 0.58 MMC/hour"},
      {"measurement": "Blood levels of FSH and LH", "setting": "irritable bowel syndrome; 2.0 mg/day s.c., six months (entry one)", "result": "effectively reduced their blood levels of FSH and LH"},
      {"measurement": "Symptoms of irritable bowel disease", "setting": "irritable bowel syndrome; 2.0 mg/day s.c., six months (entry two)", "result": "effectively reduced the symptoms of their irritable bowel disease"},
      {"measurement": "Irritable bowel symptoms", "setting": "irritable bowel syndrome; depot of 7.5 mg I.M. monthly with 100 mg testosterone depot I.M. monthly, after six months", "result": "controlled without side effects"}
    ]}
  ]
}
